# Reference: the supplement of paper PMC10307832
# Experiments:
# Assay in all cases: relative viability (nuclei count vs DMSO), 5 days (fraction); higher = more cells survive
# BGJ398 + Olaparib = compound: CCN1CCN(c2ccc(Nc3cc(N(C)C(=O)Nc4c(Cl)c(OC)cc(OC)c4Cl)ncn3)cc2)CC1 [BGJ398] + O=C(c1cc(Cc2n[nH]c(=O)c3ccccc23)ccc1F)N1CCN(C(=O)C2CC2)CC1 [Olaparib] (partner 8 µM)
# Outline: (§1)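 Relative viability is defined as nuclei in treated wells over nuclei in vehicle wells. Duplicate plates were run and medians reported. Lung cancer cell lines in 1536-well plates were dosed by pin tool one day after seeding, with one drug or with a fixed anchor-drug dose plus five library-drug doses (not always all listed) in √10 steps, and nuclei were counted after 5 days.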
# BGJ398 + Palbociclib = compound: CCN1CCN(c2ccc(Nc3cc(N(C)C(=O)Nc4c(Cl)c(OC)cc(OC)c4Cl)ncn3)cc2)CC1 [BGJ398] + CC(=O)c1c(C)c2cnc(Nc3ccc(N4CCNCC4)cn3)nc2n(C2CCCC2)c1=O [Palbociclib] (partner 0.5 µM)
# Outline: as §1
# [1] = compound: C1=CC2=NC=CN=C2C=C1/C=C/3\C(=O)NC(=O)S3 + CC(=O)c1c(C)c2cnc(Nc3ccc(N4CCNCC4)cn3)nc2n(C2CCCC2)c1=O [Palbociclib] (partner 0.5 µM)
# Outline: as §1
# BGJ398 + Pictilisib = compound: CCN1CCN(c2ccc(Nc3cc(N(C)C(=O)Nc4c(Cl)c(OC)cc(OC)c4Cl)ncn3)cc2)CC1 [BGJ398] + CS(=O)(=O)N1CCN(Cc2cc3nc(-c4cccc5[nH]ncc45)nc(N4CCOCC4)c3s2)CC1 [Pictilisib] (partner 1 µM)
# Outline: as §1
Cell Line,relative viability (BGJ398 + Olaparib; first compound 0.01 µM),relative viability (BGJ398 + Olaparib; first compound 0.03162 µM),relative viability (BGJ398 + Olaparib; first compound 0.1 µM),relative viability (BGJ398 + Olaparib; first compound 0.3162 µM),relative viability (BGJ398 + Olaparib; first compound 1 µM),relative viability (BGJ398 + Palbociclib; first compound 0.01 µM),relative viability (BGJ398 + Palbociclib; first compound 0.03162 µM),relative viability (BGJ398 + Palbociclib; first compound 0.1 µM),relative viability (BGJ398 + Palbociclib; first compound 0.3162 µM),relative viability (BGJ398 + Palbociclib; first compound 1 µM),relative viability ([1]; first compound 0.02 µM),relative viability ([1]; first compound 0.06325 µM),relative viability ([1]; first compound 0.2 µM),relative viability ([1]; first compound 0.6325 µM),relative viability ([1]; first compound 2 µM),relative viability (BGJ398 + Pictilisib; first compound 0.01 µM),relative viability (BGJ398 + Pictilisib; first compound 0.03162 µM),relative viability (BGJ398 + Pictilisib; first compound 0.1 µM),relative viability (BGJ398 + Pictilisib; first compound 0.3162 µM),relative viability (BGJ398 + Pictilisib; first compound 1 µM)
LK-2,0.624,0.532,0.374,0.186,0.227,0.638,0.862,0.489,0.336,0.191,0.593,0.767,0.619,0.665,0.24,0.555,0.529,0.326,0.235,0.245
LOU-NH91,0.884,0.707,0.92,0.699,0.927,0.555,0.544,0.553,0.559,0.536,0.501,0.538,0.556,0.552,0.548,0.515,0.524,0.52,0.484,0.453
LU99A,0.266,0.26,0.281,0.276,0.292,0.426,0.442,0.438,0.392,0.364,0.444,0.389,0.439,0.398,0.276,0.281,0.314,0.302,0.307,0.261
NCI-H522,0.714,0.684,0.607,0.651,0.621,1.13,1.07,1.06,0.932,0.859,1.06,1.08,0.876,0.816,0.749,,,,,
NCI-H596,0.674,0.648,0.645,0.626,0.667,,,,,,,,,,,0.367,0.416,0.355,0.389,0.321
NCI-H1299,0.961,0.971,0.977,1,0.999,,,,,,,,,,,0.742,0.807,0.847,0.827,0.965
NCI-H1563,,,,,,,,,,,,,,,,0.66,0.612,0.512,0.479,0.475
NCI-H1648,0.658,,1.18,0.85,0.487,0.266,,0.256,0.273,0.227,0.301,0.223,0.345,,0.23,,,,,
NCI-H1703,0.342,0.396,0.379,0.364,0.543,,,,,,,,,,,0.233,0.198,0.21,0.218,0.242
NCI-H2342,0.517,0.46,0.541,0.482,0.444,0.523,0.529,0.513,0.666,0.611,0.508,0.524,0.547,0.484,0.498,,,,,
SW 900,0.867,0.822,0.851,0.679,0.761,0.52,0.528,0.534,0.453,0.528,0.491,0.545,0.511,,0.602,,,,,
